Test system: MV-4-11 cells
Assay: Gene expression microarray analysis (Affymetrix PrimeView) and GSEA
Type: cell-based, human
Parameters: RFU PODN (11730768_x_at) / Fold change /veh PODN (11730768_x_at) / RFU LINC00158 (11744669_a_at) / Fold change /veh LINC00158 (11744669_a_at) / RFU DUSP10 (11751237_a_at) / Fold change /veh DUSP10 (11751237_a_at) / RFU ID3 (11757404_x_at) / Fold change /veh ID3 (11757404_x_at) / RFU PLEKHG5 (11737974_s_at) / Fold change /veh PLEKHG5 (11737974_s_at) / RFU LRRC4B (11730491_at) / Fold change /veh LRRC4B (11730491_at) / RFU GIMAP4 (11747438_a_at) / Fold change /veh GIMAP4 (11747438_a_at) / RFU KRT8 (11758183_x_at) / Fold change /veh KRT8 (11758183_x_at) / RFU CNN1 (11734310_a_at) / Fold change /veh CNN1 (11734310_a_at) / RFU VPS37D (11726825_at) / Fold change /veh VPS37D (11726825_at) / RFU C10orf10 (11716522_x_at) / Fold change /veh C10orf10 (11716522_x_at) / RFU KIR2DL2 /// KIR2DL4 /// KIR2DL5A /// KIR2DL5B /// KIR2DS1 /// KIR2DS2 /// KIR2DS3 /// KIR2DS4 /// KIR3DL3 /// KIR3DL3 /// KIR3DS1 (11738374_at) / Fold change /veh KIR2DL2 /// KIR2DL4 /// KIR2DL5A /// KIR2DL5B /// KIR2DS1 /// KIR2DS2 /// KIR2DS3 /// KIR2DS4 /// KIR3DL3 /// KIR3DL3 /// KIR3DS1 (11738374_at) / RFU C1QL1 (11718748_at) / Fold change /veh C1QL1 (11718748_at) / RFU TMPRSS4 (11747572_a_at) / Fold change /veh TMPRSS4 (11747572_a_at) / RFU HAMP (11756126_x_at) / Fold change /veh HAMP (11756126_x_at) / RFU RNFT2 (11725882_a_at) / Fold change /veh RNFT2 (11725882_a_at) / RFU NR4A2 (11747474_a_at) / Fold change /veh NR4A2 (11747474_a_at) / RFU ABCC12 (11746883_a_at) / Fold change /veh ABCC12 (11746883_a_at) / RFU TMEM136 (11760407_x_at) / Fold change /veh TMEM136 (11760407_x_at) / RFU CLDN22 /// WWC2 (11732394_at) / Fold change /veh CLDN22 /// WWC2 (11732394_at) / RFU HLA-DPB1 (11760878_x_at) / Fold change /veh HLA-DPB1 (11760878_x_at) / RFU SPINT1 (11716480_a_at) / Fold change /veh SPINT1 (11716480_a_at) / RFU GAP43 (11754022_s_at) / Fold change /veh GAP43 (11754022_s_at) / RFU A4GNT (11735810_at) / Fold change /veh A4GNT (11735810_at) / RFU PRB3 (11715151_x_at) / Fold change /veh PRB3 (11715151_x_at) / RFU TUBB4B (11761932_at) / Fold change /veh TUBB4B (11761932_at) / RFU CAPN14 (11732068_a_at) / Fold change /veh CAPN14 (11732068_a_at) / RFU TMCC2 (11721928_a_at) / Fold change /veh TMCC2 (11721928_a_at) / RFU IRGQ (11745062_a_at) / Fold change /veh IRGQ (11745062_a_at) / RFU FAM174B (11720279_a_at) / Fold change /veh FAM174B (11720279_a_at) / RFU TMPRSS4 (11748680_a_at) / Fold change /veh TMPRSS4 (11748680_a_at) / RFU FAM212B (11763350_a_at) / Fold change /veh FAM212B (11763350_a_at) / RFU PLEKHG5 (11743358_a_at) / Fold change /veh PLEKHG5 (11743358_a_at) / RFU ZSCAN30 (11745921_a_at) / Fold change /veh ZSCAN30 (11745921_a_at) / RFU CMKLR1 (11741424_a_at) / Fold change /veh CMKLR1 (11741424_a_at) / RFU LOC101060620 /// MAPK8IP1 (11723275_at) / Fold change /veh LOC101060620 /// MAPK8IP1 (11723275_at) / RFU SPTSSB (11747773_x_at) / Fold change /veh SPTSSB (11747773_x_at) / RFU PRSS12 (11739890_at) / Fold change /veh PRSS12 (11739890_at) / RFU BIN1 (11741810_x_at) / Fold change /veh BIN1 (11741810_x_at) / RFU WNT11 (11732464_a_at) / Fold change /veh WNT11 (11732464_a_at) / RFU C10orf10 (11716521_a_at) / Fold change /veh C10orf10 (11716521_a_at) / RFU C5orf56 (11738089_at) / Fold change /veh C5orf56 (11738089_at) / RFU CYB561 (11721691_x_at) / Fold change /veh CYB561 (11721691_x_at) / RFU ANKRD19P (11752326_a_at) / Fold change /veh ANKRD19P (11752326_a_at) / RFU OR2T12 /// OR2T33 /// OR2T8 (11738714_s_at) / Fold change /veh OR2T12 /// OR2T33 /// OR2T8 (11738714_s_at) / RFU VCAN (11748164_a_at) / Fold change /veh VCAN (11748164_a_at) / RFU JSRP1 (11732532_at) / Fold change /veh JSRP1 (11732532_at) / RFU KRTAP10-11 (11738290_x_at) / Fold change /veh KRTAP10-11 (11738290_x_at) / RFU MYO3A (11730013_a_at) / Fold change /veh MYO3A (11730013_a_at) / RFU EBF3 (11725865_a_at) / Fold change /veh EBF3 (11725865_a_at) / RFU CAMK2N1 (11719241_x_at) / Fold change /veh CAMK2N1 (11719241_x_at) / RFU C5orf56 (11738088_a_at) / Fold change /veh C5orf56 (11738088_a_at) / RFU OLFML3 (11715873_a_at) / Fold change /veh OLFML3 (11715873_a_at) / RFU LOC100653217 /// NTM (11731650_a_at) / Fold change /veh LOC100653217 /// NTM (11731650_a_at) / RFU MAPK11 (11762145_a_at) / Fold change /veh MAPK11 (11762145_a_at) / RFU FIZ1 (11724087_x_at) / Fold change /veh FIZ1 (11724087_x_at) / RFU OASL (11726364_x_at) / Fold change /veh OASL (11726364_x_at) / RFU SOX15 (11748057_x_at) / Fold change /veh SOX15 (11748057_x_at) / RFU CD79A (11719716_a_at) / Fold change /veh CD79A (11719716_a_at) / RFU HIST1H1D (11736915_at) / Fold change /veh HIST1H1D (11736915_at) / RFU CASKIN2 (11723855_a_at) / Fold change /veh CASKIN2 (11723855_a_at) / RFU LOC730098 (11760151_x_at) / Fold change /veh LOC730098 (11760151_x_at) / RFU OR4N2 (11742367_at) / Fold change /veh OR4N2 (11742367_at) / RFU PRRT2 (11749266_a_at) / Fold change /veh PRRT2 (11749266_a_at) / RFU SNX32 (11753110_a_at) / Fold change /veh SNX32 (11753110_a_at) / RFU CDHR5 (11726645_a_at) / Fold change /veh CDHR5 (11726645_a_at) / RFU RCAN1 (11760418_a_at) / Fold change /veh RCAN1 (11760418_a_at) / RFU FAM167A (11723789_a_at) / Fold change /veh FAM167A (11723789_a_at) / RFU FAM26E (11764081_at) / Fold change /veh FAM26E (11764081_at) / RFU ISYNA1 (11749810_s_at) / Fold change /veh ISYNA1 (11749810_s_at) / RFU ACY1 (11761880_at) / Fold change /veh ACY1 (11761880_at) / RFU 11764098_at / Fold change /veh 11764098_at / RFU SAMD14 (11745864_x_at) / Fold change /veh SAMD14 (11745864_x_at) / RFU NPB (11741838_a_at) / Fold change /veh NPB (11741838_a_at) / RFU TMPRSS6 (11731388_a_at) / Fold change /veh TMPRSS6 (11731388_a_at) / RFU KRTAP10-2 (11738614_at) / Fold change /veh KRTAP10-2 (11738614_at) / RFU ARHGAP8 /// PRR5-ARHGAP8 (11727945_x_at) / Fold change /veh ARHGAP8 /// PRR5-ARHGAP8 (11727945_x_at) / RFU KRTAP5-7 /// NADSYN1 (11734609_at) / Fold change /veh KRTAP5-7 /// NADSYN1 (11734609_at) / RFU RASL12 (11751679_a_at) / Fold change /veh RASL12 (11751679_a_at) / RFU CDKN2B (11736163_a_at) / Fold change /veh CDKN2B (11736163_a_at) / RFU PRF1 (11729649_at) / Fold change /veh PRF1 (11729649_at) / RFU, ZNF638 /// ZNF638-IT1 / Fold change vs veh, ZNF638 /// ZNF638-IT1 / RFU, PANK3 / Fold change vs veh, PANK3 / RFU, SH3YL1 / Fold change vs veh, SH3YL1 / RFU, ZEB2 / Fold change vs veh, ZEB2 / RFU, NRIP1 / Fold change vs veh, NRIP1 / RFU, PTTG1IP / Fold change vs veh, PTTG1IP / RFU, CAPN2 / Fold change vs veh, CAPN2 / RFU, MED14 / Fold change vs veh, MED14 / RFU, SNORA58 / Fold change vs veh, SNORA58 / RFU, C1orf63 / Fold change vs veh, C1orf63 / RFU, LRRFIP1 / Fold change vs veh, LRRFIP1 / RFU, NDUFAF7 / Fold change vs veh, NDUFAF7 / RFU, SLC12A2 / Fold change vs veh, SLC12A2 / RFU, IBTK / Fold change vs veh, IBTK / RFU, ESF1 / Fold change vs veh, ESF1 / Fold change vs veh, TMEM50B / RFU, TAOK1 / Fold change vs veh, TAOK1 / RFU, ACBD3 / Fold change vs veh, ACBD3 / RFU, TMA16 / Fold change vs veh, TMA16 / RFU, RWDD3 / Fold change vs veh, RWDD3 / RFU, BCAT1 / Fold change vs veh, BCAT1 / RFU, EDEM3 / Fold change vs veh, EDEM3 / RFU, TMEM33 / Fold change vs veh, TMEM33 / RFU, WDR75 / Fold change vs veh, WDR75 / RFU, AHCTF1 / Fold change vs veh, AHCTF1 / RFU, TFRC / Fold change vs veh, TFRC / RFU, ZDHHC17 / Fold change vs veh, ZDHHC17 / RFU, NOM1 / Fold change vs veh, NOM1 / RFU, ARL8B / Fold change vs veh, ARL8B / RFU, ZBTB11 / Fold change vs veh, ZBTB11 / RFU, TAMM41 / Fold change vs veh, TAMM41 / RFU, KIAA1704 /// LOC100996395 / Fold change vs veh, KIAA1704 /// LOC100996395 / RFU, ING1 / Fold change vs veh, ING1 / RFU, TRMT61B / Fold change vs veh, TRMT61B / RFU, FUBP3 / Fold change vs veh, FUBP3 / RFU, TP53 / Fold change vs veh, TP53 / RFU, TNKS2 / Fold change vs veh, TNKS2 / RFU, ZFP14 / Fold change vs veh, ZFP14 / RFU, ACTR2 / Fold change vs veh, ACTR2 / RFU, PPP3R1 / Fold change vs veh, PPP3R1 / RFU, PIK3R1 / Fold change vs veh, PIK3R1 / RFU, HNRNPA1 / Fold change vs veh, HNRNPA1 / RFU, RNF170 / Fold change vs veh, RNF170 / RFU, ZNF28 / Fold change vs veh, ZNF28 / RFU, RNGTT / Fold change vs veh, RNGTT / RFU, OGT / Fold change vs veh, OGT / RFU, BRD1 / Fold change vs veh, BRD1 / RFU, MARS / Fold change vs veh, MARS / RFU, ZNF655 / Fold change vs veh, ZNF655 / RFU, FAHD1 / Fold change vs veh, FAHD1 / RFU, BDP1 / Fold change vs veh, BDP1 / RFU, LRRCC1 / Fold change vs veh, LRRCC1 / RFU, ARID1A / Fold change vs veh, ARID1A / RFU, ZNF146 / Fold change vs veh, ZNF146 / RFU, ZNF330 / Fold change vs veh, ZNF330 / RFU, GPN3 / Fold change vs veh, GPN3 / RFU, C9orf123 / Fold change vs veh, C9orf123 / RFU, N4BP2L2 / Fold change vs veh, N4BP2L2 / RFU, ARFIP1 / Fold change vs veh, ARFIP1 / RFU, FAM179B / Fold change vs veh, FAM179B / RFU, BCL10 / Fold change vs veh, BCL10 / RFU, UHRF1BP1L / Fold change vs veh, UHRF1BP1L / RFU, BET1 / Fold change vs veh, BET1 / RFU, CNOT2 / Fold change vs veh, CNOT2 / RFU, ZNF268 / Fold change vs veh, ZNF268 / Fold change vs veh, ZNF507 / RFU, DGCR2 / Fold change vs veh, DGCR2 / RFU, WDSUB1 / Fold change vs veh, WDSUB1 / Fold change vs veh, HSP90B1 /// MIR3652 / RFU, ADSS / Fold change vs veh, ADSS / RFU, GK / Fold change vs veh, GK / RFU, ZNF148 / Fold change vs veh, ZNF148 / RFU, TAF9 / Fold change vs veh, TAF9 / RFU, SLC1A5 / Fold change vs veh, SLC1A5 / RFU, SLMO2 / Fold change vs veh, SLMO2 / RFU, ABCC4 / Fold change vs veh, ABCC4 / RFU, LOC101060439 /// RAP1B / Fold change vs veh, LOC101060439 /// RAP1B / RFU, RFX7 / Fold change vs veh, RFX7 / RFU, GTPBP10 / Fold change vs veh, GTPBP10 / RFU, CNEP1R1 / Fold change vs veh, CNEP1R1 / RFU, BIVM-ERCC5 /// ERCC5 / Fold change vs veh, BIVM-ERCC5 /// ERCC5 / RFU, ILF3 / Fold change vs veh, ILF3 / RFU 11762660_at / Fold change /veh 11762660_at / RFU VCAN (11757783_s_at) / Fold change /veh VCAN (11757783_s_at) / RFU DDX43 (11728927_at) / Fold change /veh DDX43 (11728927_at) / RFU KRT8 (11758188_x_at) / Fold change /veh KRT8 (11758188_x_at) / RFU NKD1 (11759106_at) / Fold change /veh NKD1 (11759106_at) / RFU SRD5A1 (11742802_a_at) / Fold change /veh SRD5A1 (11742802_a_at) / RFU TPSAB1 /// TPSB2 (11721975_s_at) / Fold change /veh TPSAB1 /// TPSB2 (11721975_s_at) / RFU GSTM3 (11746129_a_at) / Fold change /veh GSTM3 (11746129_a_at) / RFU IL23R (11737362_x_at) / Fold change /veh IL23R (11737362_x_at) / RFU TMEM51 (11727254_a_at) / Fold change /veh TMEM51 (11727254_a_at) / RFU PIWIL2 (11732686_x_at) / Fold change /veh PIWIL2 (11732686_x_at) / RFU ORM1 (11744905_x_at) / Fold change /veh ORM1 (11744905_x_at) / RFU CCDC152 (11743942_at) / Fold change /veh CCDC152 (11743942_at) / RFU ECM1 (11717891_a_at) / Fold change /veh ECM1 (11717891_a_at) / RFU IL23R (11748794_a_at) / Fold change /veh IL23R (11748794_a_at) / RFU TNFAIP8L3 (11732012_x_at) / Fold change /veh TNFAIP8L3 (11732012_x_at) / RFU MBOAT4 (11741988_at) / Fold change /veh MBOAT4 (11741988_at) / RFU 11764193_at / Fold change /veh 11764193_at / RFU TMEM53 (11763286_at) / Fold change /veh TMEM53 (11763286_at) / RFU MAGEB2 (11727129_at) / Fold change /veh MAGEB2 (11727129_at) / RFU TMEM200A (11744735_a_at) / Fold change /veh TMEM200A (11744735_a_at) / RFU CCDC152 (11751479_a_at) / Fold change /veh CCDC152 (11751479_a_at) / RFU FAM211A (11726209_a_at) / Fold change /veh FAM211A (11726209_a_at) / RFU RGS16 (11746705_a_at) / Fold change /veh RGS16 (11746705_a_at) / RFU VCAN (11755009_s_at) / Fold change /veh VCAN (11755009_s_at) / RFU RHOB (11743442_s_at) / Fold change /veh RHOB (11743442_s_at) / RFU RGS16 (11720943_a_at) / Fold change /veh RGS16 (11720943_a_at) / RFU RGS16 (11720944_at) / Fold change /veh RGS16 (11720944_at) / RFU, VPS4B / Fold change vs veh, VPS4B / RFU, CREB1 / Fold change vs veh, CREB1 / RFU, DNAJC13 / Fold change vs veh, DNAJC13 / RFU, GNAQ / Fold change vs veh, GNAQ / RFU, CDK5R1 / Fold change vs veh, CDK5R1 / RFU, ZRANB3 / Fold change vs veh, ZRANB3 / RFU, CUL4A / Fold change vs veh, CUL4A / RFU, CCNY / Fold change vs veh, CCNY / RFU, UFL1 / Fold change vs veh, UFL1 / RFU, COG3 / Fold change vs veh, COG3 / RFU, DIAPH2 / Fold change vs veh, DIAPH2 / RFU, SKA2 / Fold change vs veh, SKA2 / RFU, AFF3 / Fold change vs veh, AFF3 / RFU, LMF1 / Fold change vs veh, LMF1 / RFU, IPO11 / Fold change vs veh, IPO11 / RFU, DFFB / Fold change vs veh, DFFB / RFU, FOXP1 / Fold change vs veh, FOXP1 / RFU, CARD8 / Fold change vs veh, CARD8 / RFU, STRN3 / Fold change vs veh, STRN3 / RFU, ADK / Fold change vs veh, ADK / RFU, RASSF2 / Fold change vs veh, RASSF2 / RFU, WIPF1 / Fold change vs veh, WIPF1 / RFU, LARP1B / Fold change vs veh, LARP1B / RFU, RASA1 / Fold change vs veh, RASA1 / RFU, RB1 / Fold change vs veh, RB1 / RFU, PPFIA1 / Fold change vs veh, PPFIA1 / RFU, MAT2A / Fold change vs veh, MAT2A / RFU, CCT5 / Fold change vs veh, CCT5 / RFU, WDR92 / Fold change vs veh, WDR92 / RFU, CUX1 / Fold change vs veh, CUX1 / RFU, TTC7A / Fold change vs veh, TTC7A / RFU, TMEM135 / Fold change vs veh, TMEM135 / RFU, DEPTOR / Fold change vs veh, DEPTOR / RFU, CPM / Fold change vs veh, CPM / RFU, DNAJB6 / Fold change vs veh, DNAJB6 / RFU, CACNA2D3 / Fold change vs veh, CACNA2D3 / RFU, DTX4 / Fold change vs veh, DTX4 / RFU, TFCP2 / Fold change vs veh, TFCP2 / RFU, GMCL1 /// GMCL1P1 / Fold change vs veh, GMCL1 /// GMCL1P1 / RFU, AEBP2 / Fold change vs veh, AEBP2 / RFU, SNHG1 /// SNORD22 /// SNORD25 /// SNORD26 /// SNORD27 /// SNORD28 /// SNORD29 /// SNORD31 / Fold change vs veh, SNHG1 /// SNORD22 /// SNORD25 /// SNORD26 /// SNORD27 /// SNORD28 /// SNORD29 /// SNORD31 / Fold change (Aza/veh), C12orf56 (ProbeSet 11735607_a_at) / Fold change (ACY-1035/veh), C12orf56 (ProbeSet 11735607_a_at) / Fold change (Aza/veh), FGFR1OP (ProbeSet 11751329_s_at) / Fold change (ACY-1035/veh), FGFR1OP (ProbeSet 11751329_s_at) / Fold change (Aza/veh), VPS36 (ProbeSet 11739960_a_at) / Fold change (ACY-1035/veh), VPS36 (ProbeSet 11739960_a_at) / RFU SYPL1 (11715823_x_at) / Fold change /veh SYPL1 (11715823_x_at) / RFU IGFBP7 (11715501_s_at) / Fold change /veh IGFBP7 (11715501_s_at) / RFU REEP3 (11722064_at) / Fold change /veh REEP3 (11722064_at) / RFU IGLL1 (11728026_x_at) / Fold change /veh IGLL1 (11728026_x_at): dose or concentration left out as unconfirmed
Conditions: MV-4-11 cells, 48 hours

Structure (SMILES): Nc1ncn([C@@H]2O[C@H](CO)[C@@H](O)[C@H]2O)c(=O)n1 [azacitidine]
- Fold change /veh TMCC2 (11721928_a_at): 0.97
